Source: patent US12071425B2 (Genentech, Inc., priority 2018, dated 2024)
Where a name gives a salt, the structure may show the parent alone.

Biological target: kinase domain of IRE1 alpha (His-tagged kinase dead construct KR, AA G547-L977, D688N) (Homo sapiens (Human), UniProt O75460, D688N)
Test: IRE1α TR-FRET competition binding assay
Conditions: competition with Kinase Tracer 236, 0.1 μM; one hour at room temperature
Method in brief: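 Compound displacement of an ATP-site fluorescent tracer (0.1 μM final) measured by TR-FRET after 1 h at room temperature. Protein, a His-tagged D688N kinase/RNase construct from Sf9 cells (0.006 μM final), was pre-bound 1 h at 4° C to Eu anti-His antibody (0.002 μM) in pH 7.5 HEPES buffer.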

Chain of kinase domain of IRE1 alpha (His-tagged kinase dead construct KR, AA G547-L977, D688N) (O75460 547-977 D688N): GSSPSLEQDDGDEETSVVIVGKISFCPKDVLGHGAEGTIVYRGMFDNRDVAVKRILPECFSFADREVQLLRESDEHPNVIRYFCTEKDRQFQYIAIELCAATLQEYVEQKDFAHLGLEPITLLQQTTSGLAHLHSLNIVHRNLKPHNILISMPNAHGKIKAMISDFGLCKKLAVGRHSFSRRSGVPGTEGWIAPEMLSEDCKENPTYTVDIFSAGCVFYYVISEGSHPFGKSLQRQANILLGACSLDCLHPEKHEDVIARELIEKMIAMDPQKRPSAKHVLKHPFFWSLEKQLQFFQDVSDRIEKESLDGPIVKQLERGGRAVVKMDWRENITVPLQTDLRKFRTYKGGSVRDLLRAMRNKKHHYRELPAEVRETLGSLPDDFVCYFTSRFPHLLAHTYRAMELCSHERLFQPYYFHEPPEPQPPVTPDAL

IC50 | Compound
3.1 nM | C[C@@]1(F)CNC[C@@H](Nc2nccc(-c3cccnc3Oc3ccc(NS(=O)(=O)Cc4ccccc4)c(F)c3F)n2)C1 [Compound 174, N-(2,3-difluoro-4-((3-(2-(((3S,5S)-5-fluoro-5-methylpiperidin-3-yl)amino)pyrimidin-4-yl)pyridin-2-yl)oxy)phenyl)-1-phenylmethanesulfonamide]
5.2 nM | Cc1c(Oc2ncccc2-c2ccnc(N[C@H]3CCCNC3)n2)cc(F)c(NS(=O)(=O)Cc2ccccc2)c1C [Compound 175, (S)-N-(6-fluoro-2,3-dimethyl-4-((3-(2-(piperidin-3-ylamino)pyrimidin-4-yl)pyridin-2-yl)oxy)phenyl)-1-phenylmethanesulfonamide]
2.5 nM | O=S(=O)(Cc1ccccc1)Nc1c(F)cc(Oc2ncccc2-c2ccnc(N[C@@H]3CNC[C@@H](F)C3)n2)c(F)c1F [Compound 176, 1-Phenyl-N-(2,3,6-trifluoro-4-((3-(2-(((3S,5S)-5-fluoropiperidin-3-yl)amino)pyrimidin-4-yl)pyridin-2-yl)oxy)phenyl)methanesulfonamide]
4.9 nM | Cc1cc(NS(=O)(=O)Cc2ccccc2)c(F)c(F)c1Oc1ncccc1-c1ccnc(N[C@@H]2CNC[C@H](C)C2)n1 [Compound 177, N-(2,3-difluoro-5-methyl-4-((3-(2-(((3S,5R)-5-methyl-3-piperidyl)amino)pyrimidin-4-yl)-2-pyridyl)oxy)phenyl)-1-phenyl-methanesulfonamide]
3.5 nM | Cc1cc(NS(=O)(=O)Cc2ccccc2)c(F)c(F)c1Oc1ncccc1-c1ccnc(N[C@@H]2CNC[C@@H](F)C2)n1 [Compound 178, N-(2,3-difluoro-4-((3-(2-(((3S,5S)-5-fluoro-3-piperidyl)amino)pyrimidin-4-yl)-2-pyridyl)oxy)-5-methyl-phenyl)-1-phenyl-methanesulfonamide]
4.3 nM | Cc1c(Oc2ncccc2-c2ccnc(N[C@@H]3CNC[C@@H](F)C3)n2)cc(F)c(NS(=O)(=O)Cc2ccccc2)c1F [Compound 179, N-(2,6-difluoro-4-((3-(2-(((3S,5S)-5-fluoro-3-piperidyl)amino)pyrimidin-4-yl)-2-pyridyl)oxy)-3-methyl-phenyl)-1-phenyl-methanesulfonamide]
38 nM | O=S(=O)(Cc1ccccc1)Nc1ccc(Oc2ncccc2-c2ccnc(NC3CCNCC3)n2)c(F)c1F [Compound 180, N-(2,3-difluoro-4-((3-(2-(4-piperidylamino)pyrimidin-4-yl)-2-pyridyl)oxy)phenyl)-1-phenyl-methanesulfonamide]
36 nM | O=C1CC[C@H](Nc2nccc(-c3cccnc3Oc3ccc(NS(=O)(=O)Cc4ccccc4)c(F)c3F)n2)CN1 [Compound 181, (S)-N-(2,3-difluoro-4-((3-(2-((6-oxopiperidin-3-yl)amino)pyrimidin-4-yl)pyridin-2-yl)oxy)phenyl)-1-phenylmethanesulfonamide]
9.5 nM | O=S(=O)(Cc1ccccc1)Nc1ccc(Oc2ncccc2-c2ccnc(N[C@H]3CC[C@H](O)CC3)n2)c(F)c1F [Compound 182, N-(2,3-difluoro-4-((3-(2-(((1r,4r)-4-hydroxycyclohexyl)amino)pyrimidin-4-yl)pyridin-2-yl)oxy)phenyl)-1-phenylmethanesulfonamide]
8.5 nM | O=S(=O)(Cc1ccccc1)Nc1ccc(Oc2ncccc2-c2ccnc(N[C@@H]3CNCC(F)(F)C3)n2)c(F)c1F [Compound 183, (S)-N-(4-((3-(2-((5,5-difluoropiperidin-3-yl)amino)pyrimidin-4-yl)pyridin-2-yl)oxy)-2,3-difluorophenyl)-1-phenylmethanesulfonamide]
57 nM | CN(C)CCNc1nccc(-c2cccnc2Oc2ccc(NS(=O)(=O)Cc3ccccc3)c(F)c2F)n1 [Compound 184, N-(4-((3-(2-((2-(dimethylamino)ethyl)amino)pyrimidin-4-yl)pyridin-2-yl)oxy)-2,3-difluorophenyl)-1-phenylmethanesulfonamide]
2.9 nM | N#Cc1ccccc1CS(=O)(=O)Nc1ccc(Oc2ncccc2-c2ccnc(N[C@H]3CCCNC3)n2)c(F)c1F [Compound 187, (S)-1-(2-cyanophenyl)-N-(2,3-difluoro-4-((3-(2-(piperidin-3-ylamino)pyrimidin-4-yl)pyridin-2-yl)oxy)phenyl)methanesulfonamide]
11 nM | O=S(=O)(CC1(F)CC1)Nc1ccc(Oc2ncccc2-c2ccnc(N[C@H]3CCCNC3)n2)c(F)c1F [Compound 188, (S)-N-(2,3-difluoro-4-((3-(2-(piperidin-3-ylamino)pyrimidin-4-yl)pyridin-2-yl)oxy)phenyl)-1-(1-fluorocyclopropyl)methanesulfonamide]
5 nM | CCC(F)(F)CS(=O)(=O)Nc1c(F)cc(Oc2ncccc2-c2ccnc(N[C@@H]3CNC[C@@H](F)C3)n2)c(F)c1F [Compound 189, 2.2-difluoro-N-(2,3,6-trifluoro-4-((3-(2-(((3S,5S)-5-fluoro-3-piperidyl)amino)pyrimidin-4-yl)-2-pyridyl)oxy)phenyl)butane-1-sulfonamide]
4.7 nM | C[C@@]1(F)CNC[C@@H](Nc2nccc(-c3cccnc3Oc3cc(F)c(NS(=O)(=O)Cc4ccccc4)c(F)c3F)n2)C1 [Compound 190, 1-Phenyl-N-(2,3,6-trifluoro-4-((3-(2-(((3S,5S)-5-fluoro-5-methyl-3-piperidyl)amino)pyrimidin-4-yl)-2-pyridyl)oxy)phenyl)methanesulfonamide]
4.3 nM | N#Cc1ccc(CS(=O)(=O)Nc2c(F)cc(Oc3ncccc3-c3ccnc(N[C@@H]4CNC[C@@H](F)C4)n3)c(F)c2F)cc1 [Compound 191, 1-(4-cyanophenyl)-N-(2,3,6-trifluoro-4-((3-(2-(((3S,5S)-5-fluoropiperidin-3-yl)amino)pyrimidin-4-yl)pyridin-2-yl)oxy)phenyl)methanesulfonamide]
9.7 nM | O=S(=O)(CC1CCC1(F)F)Nc1ccc(Oc2ncccc2-c2ccnc(N[C@H]3CCCNC3)n2)c(F)c1F (stereo partly drawn) [Compound 192, N-(2,3-difluoro-4-((3-(2-(((S)-piperidin-3-yl)amino)pyrimidin-4-yl)pyridin-2-yl)oxy)phenyl)-1-(2,2-difluorocyclobutyl)methanesulfonamide hydrochloride]
33 nM | O=S(=O)(Cc1ccccc1)Nc1c(F)cc(Oc2ncccc2-c2ccnc(N[C@H]3CNC[C@H](F)C3)n2)c(F)c1F [Compound 193, 1-phenyl-N-(2,3,6-trifluoro-4-((3-(2-(((3R,5R)-5-fluoro-3-piperidyl)amino)pyrimidin-4-yl)-2-pyridyl)oxy)phenyl)methanesulfonamide]
4 nM | CCC(F)(F)CS(=O)(=O)Nc1c(F)cc(Oc2ncccc2-c2ccnc(N[C@H]3CCCNC3)n2)c(F)c1F [Compound 194, (S)-2,2-difluoro-N-(2,3,6-trifluoro-4-((3-(2-(piperidin-3-ylamino)pyrimidin-4-yl)pyridin-2-yl)oxy)phenyl)butane-1-sulfonamide]
4.6 nM | Cc1cc(CS(=O)(=O)Nc2c(F)cc(Oc3ncccc3-c3ccnc(N[C@H]4CCCNC4)n3)c(F)c2F)no1 [Compound 195, (S)-1-(5-methylisoxazol-3-yl)-N-(2,3,6-trifluoro-4-((3-(2-(piperidin-3-ylamino)pyrimidin-4-yl)pyridin-2-yl)oxy)phenyl)methanesulfonamide]
2.5 nM | O=S(=O)(Cc1ccc(C(F)(F)F)nc1)Nc1c(F)cc(Oc2ncccc2-c2ccnc(N[C@H]3CCCNC3)n2)c(F)c1F [Compound 196, (S)-N-(2,3,6-trifluoro-4-((3-(2-(piperidin-3-ylamino)pyrimidin-4-yl)pyridin-2-yl)oxy)phenyl)-1-(6-(trifluoromethyl)pyridin-3-yl)methanesulfonamide]
490 nM | O=C(NCc1cccc(Oc2ncccc2-c2ccnc(N[C@H]3CCCNC3)n2)c1F)C1CC1 [Compound 197, (S)—N-(2-Fluoro-3-((3-(2-(piperidin-3-ylamino)pyrimidin-4-yl)pyridin-2-yl)oxy)benzyl)cyclopropanecarboxamide]
4.4 nM | C[C@@]1(F)CNC[C@@H](Nc2nccc(-c3cccnc3Oc3cc(F)c(NS(=O)(=O)CC4CCC4)c(F)c3F)n2)C1 [Compound 202, 1-cyclobutyl-N-(2,3,6-trifluoro-4-((3-(2-(((3S,5S)-5-fluoro-5-methylpiperidin-3-yl)amino)pyrimidin-4-yl)pyridin-2-yl)oxy)phenyl)methanesulfonamide]
3.3 nM | Cc1cc(CS(=O)(=O)Nc2c(F)cc(Oc3ncccc3-c3ccnc(N[C@@H]4CNC[C@@](C)(F)C4)n3)c(F)c2F)no1 [Compound 203, 1-(5-methylisoxazol-3-yl)-N-(2,3,6-trifluoro-4-((3-(2-(((3S,5S)-5-fluoro-5-methylpiperidin-3-yl)amino)pyrimidin-4-yl)pyridin-2-yl)oxy)phenyl)methanesulfonamide]
4.1 nM | Cc1cc(CS(=O)(=O)Nc2c(F)cc(Oc3ncccc3-c3ccnc(N[C@@H]4CNC[C@@H](F)C4)n3)c(F)c2F)no1 [Compound 204, 1-(5-methylisoxazol-3-yl)-N-(2,3,6-trifluoro-4-((3-(2-(((3S,5S)-5-fluoropiperidin-3-yl)amino)pyrimidin-4-yl)pyridin-2-yl)oxy)phenyl)methanesulfonamide]
4.4 nM | O=S(=O)(CCC(F)(F)F)Nc1c(F)cc(Oc2ncccc2-c2ccnc(N[C@@H]3CNC[C@@H](F)C3)n2)c(F)c1F [Compound 205, 3,3,3-trifluoro-N-(2,3,6-trifluoro-4-((3-(2-(((3S,5S)-5-fluoro-3-piperidyl)amino)pyrimidin-4-yl)-2-pyridyl)oxy)phenyl)propane-1-sulfonamide]
8.2 nM | O=S(=O)(Nc1ccc(Oc2ncccc2-c2ccnc(N[C@H]3CCCNC3)n2)c(F)c1F)c1cc(F)cc(F)c1 [Compound 206, N-[2,3-Difluoro-4-[[3-[2-[[(3S)-3-piperidyl]amino]pyrimidin-4-yl]-2-pyridyl]oxy]phenyl]-3,5-difluoro-benzenesulfonamide]
